Assay results taken from patent publication US9393447B2, “Liquid non-ionic salt-free skin and hair treatment composition that contains Lauroyl N-Methyl Glucamide” (Formula XO, Inc., priority 2013, dated 2016).

Assays:
[1] = Temperature at which LMG solutions solidify (gel) on cooling; format: physicochemical
Procedure: The pH was then adjusted to 4-5 with HC1. Separate solutions were also prepared with increasing final concentrations of decyl glucoside: 0.0, 0.5, 1.0, 2.0, 3.0, 4.0, 5.0, 6.0. The compositions were brought into clear, colorless single phase solutions by heating to 60° C. The solutions were then cooled in a refrigerated chamber and the temperature at which gelling occurred was noted. As the concentration of decyl glucoside increased the temperature at which the LMG solution gelled decreased, forming a non-gelling glass at decyl glucoside concentrations of 5% and above. Thus the addition of decyl glucoside at concentrations of 5% or greater to a solution of 10% LMG and 10% glycerol prevents stable gel formation, even at temperatures as low as −20° C.
Composition A was prepared as described in the above table.
At room temperature the solution was viscous in consistency. The solution solidified at 15° C. […] Such phase transitions in a commercial product are unacceptable.

Physical state of solution ([1]; 0.2 wt % solution of LMG in water, 4° C.): loose jelly-like solution
Temperature at which hard gels form ([1]; LMG 5-15 wt % in water): about 35 °C
melting point: ~ 60 °C
Structure (SMILES): CCCCCCCCCCCC(=O)N(C)CC(O)C(O)C(O)C(O)CO (stereo not drawn) [LMG, Lauroyl N-Methyl Glucamide]
